Measured values taken from patent US20040067850A1, “Agricultural and horticultural composition” (priority 2001, published 2004).

Test system: Oat
Experiment: Gotland field trial, foliage application: manganese deficiency assessment in oat
Format: in vivo
Conditions: 4 kg/ha, scale 0 = no deficiency, 100 = all plants
Procedure: Oat was grown on a location on Gotland, Sweden, with severe manganese conditions. […] The invention, MicroplanTM Manganese (150 gram manganese complex bound per liter, amino acids used were methionin and lysine, respectively), was applied to the foliage at growing stage DC 25 (early tillering). […] The same amount of manganese was applied. The assessment, shown in the table 7 below, were done one week and two weeks after application. According to the following procedure: Manganese deficiency 0-100, scale 0=no deficiency 100=all plants/leaves showing deficiency (=yellow leaves).

## O=S(=O)([O-])[O-].[Mn+2] [Manganese sulphate]
6/7-2001
  Manganese deficiency 0-100 (plant/leaf area with symptoms): 28
16/7-2001
  Manganese deficiency 0-100 (plant/leaf area with symptoms): 25
